The test system of data set [1] is HT-22. The experiment in a line: Neuroprotective activity in mouse HT22 cells assessed as protection against glutamate-induced toxicity after 24 hrs by MTT assay. The class given is functional, cell-based. The conditions noted are these: HT-22, 24 h. On the technique in general: Formazan colour is commonly taken as a measure of viable cells.
In data set [2] the test system is HT-22. As to the kind of experiment: Neuroprotective activity in mouse HT22 cells assessed as protection against glutamate-induced toxicity at 0.5 to 1 uM after 24 hrs by MTT assay relative to control. The class given is functional.
Data set [3] can be described thus: Cytotoxicity against mouse hippocampal HT22 cells at 1 uM after 24 hrs by MTT assay. The conditions noted are these: ht-22, 24 h. The class given is cell-based, Hippocampus.
For data set [4], the system named is HT-22. As to the kind of experiment: Neuroprotective activity in mouse HT22 cells assessed as protection against glutamate-induced toxicity at 1 uM after 24 hrs by MTT assay in presence of GW-9662. The class given is functional, cell-based.
Data set [5] deals with HT-22. As to the kind of experiment: Inhibition of glutamate-induced decrease in GSH level in mouse HT22 cells at 1 uM after 24 hrs. Format: functional, cell-based.

The source made the active and inactive calls. The calls are words filed in the database; no cut-off is given here.

Results on 7 compounds are retold here after ChEMBL document CHEMBL1287699, “N,N-Bis-(8-hydroxyquinoline-5-yl methyl)-benzyl substituted amines (HQNBA): peroxisome proliferator-activated receptor (PPAR-γ) agonists with neuroprotective properties” (Bioorg Med Chem Lett, 2010).

A word on the EC50: it is the concentration needed to bring the measured effect to its halfway point. For the compound `Oc1ccc(CN(Cc2cccs2)Cc2ccc(O)c3ncccc23)c2cccnc12`, in the data set with HT-22 [1], the EC50 was 0.383 µM. Besides, in the data set on HT-22 [2], the “%max” value amounted to 97%. Moreover, the Activity in data set [3] worked out at 34%. In the data set with HT-22 [4], the outcome was inactive. For the same compound, the outcome in the data set with HT-22 [5] was Active.
On the same counts, the results for `Oc1ccc(CN(Cc2cccc(C(F)(F)F)c2)Cc2ccc(O)c3ncccc23)c2cccnc12` are 0.168 µM, 99%, 40.7%, “inactive” and “Active”.
As for `COc1cc(/C=C/c2cc(/C=C/c3ccc(O)c(OC)c3)n(-c3ccccc3)n2)ccc1O`, the result with HT-22 [4] was Active.
Still for that read-out and setting: the result for `O=C(Nc1ccccc1)c1cc([N+](=O)[O-])ccc1Cl` reads “inactive”.
Take `Oc1ccc(CN(Cc2ccc(C(F)(F)F)cc2)Cc2ccc(O)c3ncccc23)c2cccnc12`: the EC50 with HT-22 [1] amounted to 0.621 µM. For the same compound, in the data set with HT-22 [2], the “%max” value is recorded as 100%. This compound also came in with an Activity in data set [3] of 33.7%. Further, in the data set on HT-22 [4], the result was inactive. Moreover, the outcome with HT-22 [5] was Active.
Turning to `Cc1ccc(CN(Cc2ccc(O)c3ncccc23)Cc2ccc(O)c3ncccc23)cc1`, the EC50 with HT-22 [1] stood at 0.125 µM. Further, the “%max” value in the data set with HT-22 [2] amounted to 100%. In data set [3], this compound had an Activity of 39.4%. Further, the result in the data set with HT-22 [4] was inactive. Also, in the data set on HT-22 [5], the result was Active.
As to `Cc1c(C)c2c(c(C)c1O)CCC(C)(COc1ccc(CC3SC(=O)NC3=O)cc1)O2` (stereo not drawn), the outcome with HT-22 [5] was inactive.
